Assay results from patent EP1383793B1 (priority 2000, dated 2001).
No end group written: not given here.

Assays:
IR [1] = target: T1, IR (Homo sapiens, UniProt P06213); assay: Phage ELISA, binding of phage-displayed peptides to IR
T1 construct: composed of the extracellular domains of both the α and β chains of the natural receptor; made in house; background b13 names human embryonic kidney 293 cells for the Bass et al. construct
Description: Amino acid sequences comprising the motif of Formulas 1 through 10. […] Fifty microliters of this solution was added to an appropriate number of wells in a 96-well microtiter plate (MaxiSorp plates, Nunc) and incubated overnight at 4°C. […] To isolate specific binders, each library was panned against a soluble form of the human IR. This IR is composed of the extracellular domains of both the α and β chains of the natural receptor, as well as the constant domain from immunoglobulin Fc, retaining the β-α-α-β structure described above. Because the IR is expressed in a eukaryotic system, disulfide bond formation and glycosylation patterns should mimic the wild-type receptor. The details of this recombinant protein construct are described in Bass et al. (1996). Phage ELISA. […] The wells were blocked with 200 µl of MPBS for 1.5 h at RT. […] Peptides were added as noted below and allowed to incubate at RT for 3 h. The plates were washed 3 times with PBST. A solution of 1:3000 diluted HRP:Anti-M13 conjugate at 100 µl per well of was added for 1 h. Following a repeat of the washing, 100 µl of ABTS was added for 15-30 min. […] Phage ELISA. […] Peptides were added as noted below and allowed to incubate at RT for 3 h. […] A solution of 1:3000 diluted HRP:Anti-M13 Conjugate at 100 µl per well of was added for 1 h. Following a repeat of the washing, 100 µl of ABTS was added for 15-30 min. The OD405 was measured using a SpectraMax 340 Microplate Spectrophotometer.

adipocytes = assay: 3H-glucose uptake into adipocytes (fat cell assay, FFC); type: cell-based, Mouse; conditions: Subjective ranking; basal and sub maximal insulin; includes series A
IR [2] = target: T1, IR; assay: Phage ELISA, competition of phage binding by soluble synthetic peptides, IR-coated wells; conditions: Insulin Receptor
Description: (§2) Phage ELISA. […] The wells were blocked with 200 µl of MPBS for 1.5 h at RT. Phage were added at 100 µl per well. Peptides were added as noted below and allowed to incubate at RT for 3 h. The plates were washed 3 times with PBST. A solution of 1:3000 diluted HRP:Anti-M13 conjugate at 100 µl per well of was added for 1 h. Following a repeat of the washing, 100 µl of ABTS was added for 15-30 min.
(§3) Peptide Competition. […] Twenty microliters of the stock synthetic-peptide solution was added to Row A. A series of 20 µl into 100 µl dilutions were performed until Row G. Twenty microliters were discarded from Row G to maintain 100 µl per well. Row H was reserved as no peptide wells. […] The volume was maintained by the addition of 18 µl of the phage solution to Row A.
(§4) Phage ELISA. […] The wells were blocked with 200 µl of 2% (w/v) Carnation non-fat dry milk in PBS for 1.5 h at RT. Phage were added at 100 µl per well. Peptides were added as noted below and allowed to incubate at RT for 3 h. The plates were washed 3X with PBST. A solution of 1:3000 diluted HRP:Anti-M13 Conjugate at 100 µl per well of was added for 1 h. Following a repeat of the washing, 100 µl of ABTS was added for 15-30 min. The OD405 was measured using a SpectraMax 340 Microplate Spectrophotometer.
(§5) Peptide Competition. Peptide Competition Curves were produced during the phage ELISA across rows in triplicate. The stock synthetic peptide solution was added to Column 12 so that the total volume totaled 150 µl (additional phage solution was added when necessary). A serial dilution was made by transferring 50 µl from Column 12 into 100 µl in Column 11, 50 µl from Column 11 into 100 µl in Column 10, and continuing the serial dilution until Column 2. Fifty microliters were discarded from Column 2 to maintain 100 µl per well. Column 1 was reserved as no peptide wells.
(§6) A p53-like peptide that binds to MDM2 was used as a negative control.

IGF-1R [3] = target: T2, IGF-1R (Homo sapiens, UniProt P08069); assay: Phage ELISA, competition of phage binding by soluble synthetic peptides, IGF-1R-coated wells; conditions: IGF Receptor, H2 Phage
T2 construct: Soluble IGF-1R was obtained from R&D Systems; purchased R&D Systems 391-GR/CF
Description: as §2, §3, §4, §5, §6

IGF-1R [4] = target: T2, IGF-1R; assay: Heterogeneous time-resolved fluorescence (Eu) competitive binding assay on IGF-1R
Description: The TRFD assay format is well established, sensitive, and quantitative (Tompkins et al., 1993).
(§1) In these assays, soluble IGF-1 receptor is coated on the surface of microtiter wells, blocked by PBS containing milk and BSA, and then incubated with biotinylated peptide or rVab. Unbound bP is then washed away and saEu is added to complex with receptor-bound bP. Upon addition of the acidic enhancement solution, the bound europium is released as free Eu^+3 which rapidly forms a highly fluorescent and stable complex with components of the enhancement solution.
The plates were blocked with PBS containing 2% non-fat milk and 0.05% BSA for 2 h at RT, followed by three PBS washes. […] The plates were then washed 5 times with TTBS (TBS buffer containing Tween-20; Wallac) and tapped dry.

Insulin receptor = target: T3, Insulin receptor (Homo sapiens, UniProt P06213); assay: Heterogeneous time-resolved fluorescence assay (TRFA) on insulin receptor; type: binding
T3 construct: composed of the extracellular domains of both the α and β chains of the natural receptor; made in house; background b13 names human embryonic kidney 293 cells for the Bass et al. construct
Description: In this assay, saEu forms a ternary complex with bP and IR (i.e., IR:bP:saEu complex). The TRFD assay format is well established, sensitive, and quantitative (Tompkins et al., 1993). The assay can use a single-chain antibody or a biotinylated peptide.
as §1, with “IR” for “IGF-1 receptor”, “a solution of 0.5% BSA and 2% non-fat” for “PBS containing”, “in PBS,” for “and BSA,”, “Eu^3+” for “Eu^+3”, “solution. The IR:bP bound saEu is then converted into its highly fluorescent state and detected by a detector such as Wallac Victor II (EG&G Wallac, Inc.)” for “solution.”
• a. Heterogeneous Time-Resolved Fluorescence Assay. […] The plates were blocked with TBS containing 2% milk and 0.5% BSA for 1 h at RT followed by three TBS washes. […] After TBS wash, europium-labeled streptavidin at 1 µg/ml in assay buffer (100 mM Tris-HCl, pH 7.8; 150 mM NaCl; 0.5% BSA; 0.05% bovine Ig; 0.05% NaN3; 0.01% Tween-20) was added to the plates and incubated for 1 h. To test binding of rVab antibodies to IR, Eu-labeled rVab antibodies in assay buffer were added to the plates and incubated for 2 h to overnight. After incubation with Eu-labeled streptavidin (for peptide test) or europium-labeled rVabs, the plates were washed 5 times with Tris-buffered saline (pH 7.5) containing 0.1 % Tween-20 (TTBS) and tapped dry. Sixty microliters of EG&G Wallac enhancement solution (100 mM acetone-potassium hydrogen pthalate, pH 3.2; […] 2-naphtyltrifluoroacetate; […] tri(n-octyl)-phosphine oxide; 0.1 % Triton X-100) was added into each well, and the plates were placed onto a shaker for 20 min at RT. […] Homogeneous Time-Resolved Fluorescence Assay. […] For library screening, 20 µM of small organic molecules in 2 % DMSO are included in the mixture.

[5] = Precipitate in diluted peptide stock prior to adding to the fat cell assay; solubility under assay conditions; type: physicochemical; conditions: diluted stock prior to adding to assay
[6] = target: human IGF-1 receptor (HIGF-1R) (Homo sapiens, UniProt P08069); assay: 125I-IGF-1 competition binding assay on solubilised purified receptor
[7] = system: FDCP2 cells (NIH) which express IGF-1R; assay: FDCP2 cell proliferation (WST-1), agonism; type: cell-based; conditions: not against IGF-1 R- cells
Description: Agonistic and antagonistic activities of the IGF-1-specific peptides were tested in FDCP2 cells (NIH) which express IGF-1R. […] Agonism activity assays were performed in a total volume of 100 µl in 96 well plates (flat bottom).
Proliferation assays were performed using WST-1 reagent. The WST-1 tetrazolium salt (slightly red) is cleaved to formazan (dark red) by the succinate-tetrazolium reductase system, which is active only in viable cells. An increase in the number of cells results in an increase in the overall activity of the dehydrogenase which results in a higher absorbance at 450 nm. […] Proliferation was measured by absorbance at 450 nm.

IGF-1R [8] = target: T2, IGF-1R; assay: Competitive phage ELISA with IGF-1 on IGF-1R; type: binding
Description: For IC50 determinations in a competitive ELISA, microtiter plates were coated with IGF-1R and blocked as described. Phage were prepared as described. Prior to addition of phage to plates, the peptide or recombinant variable antibody or fragment ("rVab"), or an appropriate control, was diluted in PBS and added to duplicate wells (100 µl/well). After incubation for 1 h at RT, the prepared phage were added to each well (100 µl/well) without removing the peptide or rVab solution. After incubation for 1 h at RT, the wells were washed and the color developed as described above.
The clones were next analyzed for binding to the receptor's active site (Figures 20A and 20B).
For IC50 determinations, microtiter plates were coated with IGF-1R and blocked as described. Phage and soluble rVabs were prepared as described above. […] After incubation for 1 h at RT, the wells were washed and the color was developed as described above.

T2 sequence (P08069 31-736 limits assumed): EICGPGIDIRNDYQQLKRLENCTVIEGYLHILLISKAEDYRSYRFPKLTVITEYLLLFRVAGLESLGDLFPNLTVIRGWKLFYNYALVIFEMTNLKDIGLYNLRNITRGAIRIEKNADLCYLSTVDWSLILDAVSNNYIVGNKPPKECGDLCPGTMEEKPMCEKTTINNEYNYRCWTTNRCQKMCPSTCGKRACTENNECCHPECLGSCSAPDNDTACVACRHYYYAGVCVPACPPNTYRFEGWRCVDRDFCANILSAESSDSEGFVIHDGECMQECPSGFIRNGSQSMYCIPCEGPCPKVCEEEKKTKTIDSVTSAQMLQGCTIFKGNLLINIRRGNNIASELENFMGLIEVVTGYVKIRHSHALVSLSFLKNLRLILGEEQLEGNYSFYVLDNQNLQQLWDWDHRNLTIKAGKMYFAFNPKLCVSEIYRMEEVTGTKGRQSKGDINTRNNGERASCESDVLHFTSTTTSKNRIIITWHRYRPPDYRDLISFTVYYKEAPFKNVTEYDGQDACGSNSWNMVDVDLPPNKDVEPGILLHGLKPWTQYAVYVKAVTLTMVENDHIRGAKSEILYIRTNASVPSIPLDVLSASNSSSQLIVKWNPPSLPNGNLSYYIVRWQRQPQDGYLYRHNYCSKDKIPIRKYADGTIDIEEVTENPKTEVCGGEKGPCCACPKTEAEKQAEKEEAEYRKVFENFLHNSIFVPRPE
T2 sequence (P08069 741-935 limits assumed): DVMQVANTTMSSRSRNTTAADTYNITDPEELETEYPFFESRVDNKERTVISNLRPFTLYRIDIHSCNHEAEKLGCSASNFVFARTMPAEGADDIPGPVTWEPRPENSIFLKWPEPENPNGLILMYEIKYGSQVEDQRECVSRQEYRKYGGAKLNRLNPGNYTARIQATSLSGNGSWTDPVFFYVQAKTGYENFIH
T1 sequence (P06213 28-758 limits assumed): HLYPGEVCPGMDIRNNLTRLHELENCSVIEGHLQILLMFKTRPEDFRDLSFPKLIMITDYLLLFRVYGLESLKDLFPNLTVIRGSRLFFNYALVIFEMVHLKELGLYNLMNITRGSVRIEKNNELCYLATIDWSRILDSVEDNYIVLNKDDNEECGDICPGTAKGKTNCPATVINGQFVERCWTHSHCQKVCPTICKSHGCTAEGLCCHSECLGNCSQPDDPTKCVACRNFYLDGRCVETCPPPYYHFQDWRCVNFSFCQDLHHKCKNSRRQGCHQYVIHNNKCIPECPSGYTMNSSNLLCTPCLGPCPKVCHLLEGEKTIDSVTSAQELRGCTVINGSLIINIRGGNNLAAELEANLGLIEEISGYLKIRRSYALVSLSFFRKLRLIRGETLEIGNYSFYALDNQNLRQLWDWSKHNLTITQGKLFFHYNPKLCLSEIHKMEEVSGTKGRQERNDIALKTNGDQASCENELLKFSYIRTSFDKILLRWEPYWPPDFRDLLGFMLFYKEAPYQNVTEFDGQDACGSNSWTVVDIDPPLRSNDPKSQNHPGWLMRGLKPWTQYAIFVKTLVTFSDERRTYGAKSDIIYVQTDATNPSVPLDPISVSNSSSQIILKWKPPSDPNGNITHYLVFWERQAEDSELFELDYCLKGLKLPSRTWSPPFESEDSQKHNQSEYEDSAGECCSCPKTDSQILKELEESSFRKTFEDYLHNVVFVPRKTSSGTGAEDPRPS
T1 sequence (P06213 763-956 limits assumed): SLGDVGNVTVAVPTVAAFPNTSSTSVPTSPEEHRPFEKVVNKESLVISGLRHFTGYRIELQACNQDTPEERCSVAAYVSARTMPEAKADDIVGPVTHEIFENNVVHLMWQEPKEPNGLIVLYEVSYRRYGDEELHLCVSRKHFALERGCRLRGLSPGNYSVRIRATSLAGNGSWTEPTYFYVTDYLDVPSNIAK
Sequence of human IGF-1 receptor (HIGF-1R) (P08069 31-736 limits assumed): as the sequence (P08069 31-736 limits assumed) above
Sequence of human IGF-1 receptor (HIGF-1R) (P08069 741-1367 limits assumed): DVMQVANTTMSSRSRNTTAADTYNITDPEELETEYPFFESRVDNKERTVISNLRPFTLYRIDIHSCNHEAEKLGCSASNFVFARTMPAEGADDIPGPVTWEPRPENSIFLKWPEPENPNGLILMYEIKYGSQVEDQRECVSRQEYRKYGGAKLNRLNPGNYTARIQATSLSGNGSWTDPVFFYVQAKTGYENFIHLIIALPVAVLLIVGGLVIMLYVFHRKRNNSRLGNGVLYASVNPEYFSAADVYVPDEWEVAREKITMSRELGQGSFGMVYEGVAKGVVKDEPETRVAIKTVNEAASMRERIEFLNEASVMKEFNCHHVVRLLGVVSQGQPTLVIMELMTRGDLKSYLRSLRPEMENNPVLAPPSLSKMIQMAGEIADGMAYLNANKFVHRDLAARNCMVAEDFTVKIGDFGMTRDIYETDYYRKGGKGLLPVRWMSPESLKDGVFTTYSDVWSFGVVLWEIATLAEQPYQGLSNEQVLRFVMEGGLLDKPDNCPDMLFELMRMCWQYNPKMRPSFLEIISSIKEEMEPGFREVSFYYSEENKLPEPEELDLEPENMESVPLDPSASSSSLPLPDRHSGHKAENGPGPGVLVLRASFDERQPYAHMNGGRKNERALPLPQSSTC
T3 sequence (P06213 28-758 limits assumed): as the sequence (P06213 28-758 limits assumed) above
T3 sequence (P06213 763-956 limits assumed): as the sequence (P06213 763-956 limits assumed) above

| Molecule | binding to IR when expressed as phage (IR [1]) | Resp. (adipocytes) | n (Hill plot) (IR [2]; 20D3 Phage) | n (Hill plot) (IR [2]; H2 Phage) | n (Hill plot) (IGF-1R [3]) | binding of biotinylated peptide to IGF-1 R (IGF-1R [4]) | binding of biotinylated peptide to IR (Insulin receptor) | Comments (precipitation) [5] | affinity for HIGF-1R [6] | Ratio ([6]; Kd HIGF1R / Kd HIR) | activity toward IGF-1 R+ cells in cell culture [7] | inhibition of phage binding to immobilized IGF-1R by IGF-1 (IGF-1R [8]) | competition with binding of 12H10 to IR (Insulin receptor) |
| --- | --- | --- | --- | --- | --- | --- | --- | --- | --- | --- | --- | --- | --- |
| CC(C)[C@H](NC(=O)[C@H](Cc1ccccc1)NC(=O)[C@H](Cc1c[nH]c2ccccc12)NC(=O)[C@H](CC(=O)O)NC(=O)[C@H](Cc1ccc(O)cc1)NC(=O)[C@H](Cc1ccccc1)NC(=O)[C@H](CC(N)=O)NC(=O)[C@H](C)NC(=O)[C@H](C)NC(=O)[C@H](CC(=O)O)NC(=O)CNC(=O)[C@H](CS)NC(=O)[C@@H]1CCCN1C(=O)[C@H](CCCNC(=N)N)NC(=O)[C@H](C)NC(=O)[C@H](Cc1c[nH]c2ccccc12)NC(=O)[C@H](CS)NC(=O)[C@H](CC(=O)O)NC(=O)[C@H](CCCCN)NC(=O)[C@H](Cc1ccc(O)cc1)NC(=O)[C@@H](N)CC(=O)O)C(=O)N[C@@H](CCC(N)=O)C(=O)N[C@@H](CCC(N)=O)C(=O)N[C@@H](C)C(=O)N[C@@H](CO)C(=O)N[C@@H](CCCCN)C(=O)N[C@@H](CCCCNC(=O)CCCC[C@@H]1SC[C@@H]2NC(=O)N[C@@H]21)C(N)=O [Clone C1] | do not have detectable binding | 0 | 0.83 | 0.46 | 0.96 | nM range | micromolar range | Precipitates | high affinity | 0.1 | – | – | – |
| LCQRLGVGWPGWLSGWCA [Clone H5] | – | – | – | – | – | – | – | – | – | – | agonistic activity | – | – |
| WNTVDPFYHKLSELLREKK [Clone B6] | do not have detectable binding | – | – | – | – | – | – | – | – | – | – | could be inhibited with IGF-1 | do not compete |
